From patent US7592336B2, “Hepatitis C virus inhibitors” (Bristol-Myers Squibb Company, priority 2005, dated 2009)

Experiments:
[1] = biological target: T1, HCV NS3/4A protease complex, BMS strain (UniProt P27958, species not given/STRAIN_BMS); assay: FRET peptide assay to monitor HCV NS3/4A proteolytic activity (BMS strain); format: biochemical, HCV genotype 1a; conditions: NS3/4A BMS strain; read-out: Activity Range (IC50)
T1 construct: said of H77 and J4L6S, not expressly of BMS; fused on or other part: A three-lysine solubilising tail at the NS4A C-terminus and purification on Ni-NTA are described for the H77 and J4L6S constructs
T1 sequence (P27958 1027-1657, change not shown, one chain of several): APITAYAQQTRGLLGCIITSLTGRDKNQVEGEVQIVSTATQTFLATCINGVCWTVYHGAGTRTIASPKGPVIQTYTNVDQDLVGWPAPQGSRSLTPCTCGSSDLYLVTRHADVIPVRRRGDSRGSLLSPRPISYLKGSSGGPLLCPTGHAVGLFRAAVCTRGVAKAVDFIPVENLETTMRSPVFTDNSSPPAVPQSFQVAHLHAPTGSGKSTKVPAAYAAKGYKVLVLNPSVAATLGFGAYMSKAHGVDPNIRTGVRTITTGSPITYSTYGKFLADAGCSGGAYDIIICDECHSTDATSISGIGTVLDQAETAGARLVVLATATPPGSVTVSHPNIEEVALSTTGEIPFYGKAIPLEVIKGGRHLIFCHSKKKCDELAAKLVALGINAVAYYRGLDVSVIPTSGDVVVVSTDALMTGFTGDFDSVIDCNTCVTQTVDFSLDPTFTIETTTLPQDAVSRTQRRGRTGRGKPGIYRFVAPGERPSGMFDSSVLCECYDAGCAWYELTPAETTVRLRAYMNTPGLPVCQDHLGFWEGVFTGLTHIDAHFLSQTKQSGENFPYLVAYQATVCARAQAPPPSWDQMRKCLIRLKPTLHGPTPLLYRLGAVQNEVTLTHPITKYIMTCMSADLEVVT
From the text: HCV NS3 protease complexes, derived from the BMS strain, H77 strain or J4L6S strain, were generated, as described below. These purified recombinant proteins were generated for use in a homogeneous assay (see below) to provide an indication of how effective compounds of the present disclosure would be in inhibiting HCV NS3 proteolytic activity.
Serum from an HCV-infected patient was obtained from Dr. T. Wright, San Francisco Hospital. An engineered full-length cDNA (compliment deoxyribonucleic acid) template of the HCV genome (BMS strain) was constructed from DNA fragments obtained by reverse transcription-PCR (RT-PCR) of serum RNA (ribonucleic acid) and using primers selected on the basis of homology between other genotype 1a strains. From the determination of the entire genome sequence, a genotype 1a was assigned to the HCV isolate according to the classification of Simmonds et al. (See P Simmonds, K A Rose, S Graham, S W Chan, F McOmish, B C Dow, E A Follett, P L Yap and H Marsden, J. Clin. Microbiol., 31(6), 1493-1503 (1993)). […] The infectious clones, H77 (1a genotype) and J4L6S (1b genotype) were obtained from R. Purcell (NIH) and the sequences are published in Genbank (AAB67036, see Yanagi, M., Purcell, R. H., Emerson, S. U. and Bukh, J. Proc. Natl. Acad. Sci. U.S.A. 94(16), 8738-8743 (1997); AF054247, see Yanagi, M., St Claire, M., Shapiro, M., Emerson, S. U., Purcell, R. H. and Bukh, J, Virology 244 (1), 161-172. (1998)).
NS3/4A protease complex-containing fractions were pooled and loaded on a desalting column Superdex-S200 pre-equilibrated with buffer D (25 mM HEPES, pH 7.5, 20% glycerol, 300 mM NaCl, 0.2% Triton X-100, 10 mM βME). Sample was loaded at a flow rate of 1 mL/min. NS3/4A protease complex-containing fractions were pooled and concentrated to approximately 0.5 mg/ml. The purity of the NS3/4A protease complexes, derived from the BMS, H77 and J4L6S strains, were judged to be greater than 90% by SDS-PAGE and mass spectrometry analyses. The enzyme was stored at −80° C., thawed on ice and diluted prior to use in assay buffer.
The purpose of this in vitro assay was to measure the inhibition of HCV NS3 protease complexes, derived from the BMS strain, H77 strain or J4L6S strain, as described above, by compounds of the present disclosure. This assay provides an indication of how effective compounds of the present disclosure would be in inhibiting HCV NS3 proteolytic activity.
In order to monitor HCV NS3/4A protease activity, an NS3/4A peptide substrate was used. The substrate was RET S1 (Resonance Energy Transfer Depsipeptide Substrate; AnaSpec, Inc. cat #22991) (FRET peptide), described by Taliani et al. in Anal. Biochem. 240(2):60-67 (1996). The sequence of this peptide is loosely based on the NS4A/NS4B natural cleavage site for the HCV NS3 protease except there is an ester linkage rather than an amide bond at the cleavage site. The peptide also contains a fluorescence donor, EDANS, near one end of the peptide and an acceptor, DABCYL, near the other end. The fluorescence of the peptide is quenched by […] resonance energy transfer (RET) between the donor and the acceptor, but as the NS3 protease cleaves the peptide the products are released from RET quenching and the fluorescence of the donor becomes apparent.
The peptide substrate was incubated with one of the three recombinant NS3/4A protease complexes, in the absence or presence of a compound of the present disclosure. The inhibitory effects of a compound were determined by monitoring the formation of fluorescent reaction product in real time using a Cytofluor Series 4000.
Assay buffer: 50 mM HEPES, pH 7.5; 0.15M NaCl; 0.1% Triton; 15% Glycerol; 10 mM βME. Substrate: 2 μM final concentration (from a 2 mM stock solution in DMSO stored at −20° C.). HCV NS3/4A protease type 1a (1b), 2-3 nM final concentration (from a 5 μM stock solution in 25 mM HEPES, pH 7.5, 20% glycerol, 300 mM NaCl, 0.2% Triton-X100, 10 mM βME). […]

[2] = system: HCV replicon in HUH-7 cells; assay: HCV replicon FRET assay; format: cell-based, HCV strain 1b; conditions: Hepatitis C virus, Huh-7; HCV replicon cell assay; read-out: Activity Range (EC50)
From the text: An HCV replicon whole cell system was established as described by Lohmann V, Korner F, Koch J, Herian U, Theilmann L, Bartenschlager R., Science 285(5424):110-3 (1999). This system enabled us to evaluate the effects of our HCV Protease compounds on HCV RNA replication. Briefly, using the HCV strain 1b sequence described in the Lohmann paper (Assession number: AJ238799), an HCV cDNA was synthesized by Operon Technologies, Inc. (Alameda, Calif.), and the full-length replicon was then assembled in plasmid pGem9zf(+) (Promega, Madison, Wis.) using standard molecular biology techniques. The replicon consists of (i) the HCV 5′ UTR fused to the first 12 amino acids of the capsid protein, (ii) the neomycin phosphotransferase gene (neo), (iii) the IRES from encephalomyocarditis virus (EMCV), and (iv) HCV NS3 to NS5B genes and the HCV 3′ UTR. Plasmid DNAs were linearized with ScaI and RNA transcripts were synthesized in vitro using the T7 MegaScript transcription kit (Ambion, Austin, Tex.) according to manufacturer's directions. In vitro transcripts of the cDNA were transfected into the human hepatoma cell line, HUH-7. […] Resulting cell lines were characterized for positive and negative strand RNA production and protein production over time.
The HCV replicon FRET assay was developed to monitor the inhibitory effects of compounds described in the disclosure on HCV viral replication. HUH-7 cells, constitutively expressing the HCV replicon, were grown in Dulbecco's Modified Eagle Media (DMEM) (Gibco-BRL) containing 10% Fetal calf serum (FCS) (Sigma) and 1 mg/ml G418 (Gibco-BRL). Cells were seeded the night before (1.5×10^4 cells/well) in 96-well tissue-culture sterile plates. Compound and no compound controls were prepared in DMEM containing 4% FCS, 1:100 Penicillin/Streptomysin (Gibco-BRL), 1:100 L-glutamine and 5% DMSO in the dilution plate (0.5% DMSO final concentration in the assay). Compound/DMSO mixes were added to the cells and incubated for 4 days at 37° C. After 4 days, cells were first assessed for cytotoxicity using alamar Blue (Trek Diagnotstic Systems) for a CC50 reading. The toxicity of compound (CC50) was determined by adding 1/10th volume of alamar Blue to the media incubating the cells. After 4 h, the fluorescence signal from each well was read, with an excitation wavelength at 530 nm and an emission wavelength of 580 nm, using the Cytofluor Series 4000 (Perspective Biosystems). Plates were then rinsed thoroughly with Phosphate-Buffered Saline (PBS) (3 times 150 μl). The cells were lysed with 25 μl of a lysis assay reagent containing an HCV protease substrate (5× cell Luciferase cell culture lysis reagent (Promega #E153A) diluted to 1× with distilled water, NaCl added to 150 mM final, the FRET peptide substrate (as described for the enzyme assay above) diluted to 10 μM final from a 2 mM stock in 100% DMSO. […]. The plate was then placed into the Cytofluor 4000 instrument which had been set to 340 nm excitation/490 nm emission, automatic mode for 21 cycles and the plate read in a kinetic mode. EC50 determinations were carried out as described for the IC50 determinations.

SMILES | IC50 [1] [nM] | EC50 [2] [nM]
C=C[C@@H]1C[C@]1(NC(=O)[C@@H]1C[C@@](O)(c2ccc(F)c(C)c2)CN1C(=O)[C@@H](NC(=O)OC(C)(C)C)C(C)(C)C)C(=O)NS(=O)(=O)C1CC1 [Compound 22] | 100 to 1000 | 1000 to 10000
C=C[C@@H]1C[C@]1(NC(=O)[C@@H]1C[C@@](O)(c2ccc(C)c(F)c2)CN1C(=O)[C@@H](NC(=O)OC(C)(C)C)C(C)(C)C)C(=O)NS(=O)(=O)C1CC1 [Compound 23] | 100 to 1000 | 1000 to 10000
C=C[C@@H]1C[C@]1(NC(=O)[C@@H]1C[C@@](O)(c2cc(C)ccc2C)CN1C(=O)[C@@H](NC(=O)OC(C)(C)C)C(C)(C)C)C(=O)NS(=O)(=O)C1CC1 [Compound 24] | 100 to 1000 | 1000 to 10000
C=C[C@@H]1C[C@]1(NC(=O)[C@@H]1C[C@@](O)(c2cc(F)ccc2OC)CN1C(=O)[C@@H](NC(=O)OC(C)(C)C)C(C)(C)C)C(=O)NS(=O)(=O)C1CC1 [Compound 25] | 100 to 1000 | 1000 to 10000
